From paper PMC11666850, “Development and evaluation of deuterated [^18F]JHU94620 isotopologues for the non-invasive assessment of the cannabinoid type 2 receptor in brain” (EJNMMI Radiopharmacy and Chemistry, 2024)

Columns and labels:
[1] = in vitro; assay type: in vitro ADME; conditions: microsomes, pH 7.4
Experimental: For microsomal incubations liver microsomes from human (HLM, 50 donors, 20 mg/mL) and rat (RLM, Sprague Dawley, 20 mg/mL) were purchased from Thermo Fisher Scientific GmbH (Dreieich, Germany). Testosterone and β-nicotinamide adenine dinucleotide 2′-phosphate reduced tetrasodium salt (NADPH) were purchased from Sigma-Aldrich (Merck KGaA, Darmstadt, Germany) and Dulbecco’s PBS (DPBS) (without Ca^2+ and Mg^2+) was purchased from Biochrom GmbH (Berlin, Germany). Analyses of samples for comparison of radiometabolite patterns were performed by radio-HPLC using method B, for determination of time dependency of the metabolic depletion using method C.
The final concentrations are given in brackets. […] The mixtures were vortexed and shaken gently at 37 °C using the BioShake iQ (QUANTIFOIL Instruments, Jena, Germany) for 5, 10, 15, 30, 45, and 60 min (for HLM) or 15, 30, 45, and 60 min (for RLM). […] The supernatants were separated and analyzed by radio-HPLC to determine the fractions of unchanged [^18F]JHU94620-d8. Efficiencies of extracted activity were determined as described in “Quantification of radiometabolites”. […]
To determine the metabolic stability in HLM and RLM, both the natural logarithm of the determined unchanged percentage of [^18F]JHU94620-d8 was plotted versus incubation time, which allowed the calculation of the in vitro half-lives as described previously (Chai et al. [2022]).

[2] = biological target: hCB2R(D80N) (Homo sapiens, UniProt P34972, D80N); conditions: female, Wistar, rat, in vivo
hCB2R(D80N), sequence (P34972 whole entry D80N): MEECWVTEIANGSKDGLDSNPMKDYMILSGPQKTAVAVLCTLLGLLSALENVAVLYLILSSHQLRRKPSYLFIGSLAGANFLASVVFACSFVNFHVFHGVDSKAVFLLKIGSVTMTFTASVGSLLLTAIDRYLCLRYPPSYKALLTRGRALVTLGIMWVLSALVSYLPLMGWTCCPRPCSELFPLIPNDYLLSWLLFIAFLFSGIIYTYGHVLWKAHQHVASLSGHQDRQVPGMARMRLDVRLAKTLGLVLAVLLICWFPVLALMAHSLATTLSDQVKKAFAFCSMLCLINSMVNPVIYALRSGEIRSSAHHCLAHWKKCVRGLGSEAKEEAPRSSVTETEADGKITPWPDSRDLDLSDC
Experimental: The dynamic biodistribution of the radiotracer in the lower body of rats was assessed by small animal PET (Nanoscan, Mediso, Hungary) over 60 min with a subsequently T1-weighted MR. Anaesthetized (2% isoflurane, carrier gas mixture of 40% air and 60% O2) male Wistar rats (body weight: 205–308 g, age: 8–10 weeks, no gender-specific differences were taken into account) were kept during imaging on a heated animal bed to sustain body temperature and were pretreated with vehicle (DMSO:Kolliphore EL:0.9% saline, 1:2:7), JHU94620-d8 (1.5 mg kg^−1 bodyweight) or with GW405833 (5 mg kg^−1 bodyweight) 5 min prior tracer application ([^18F]JHU94620-d8: 7.7–28.2 MBq, 0.4 to 3.2 nmol kg^−1 bodyweight), whereby all injections were administered intravenously. For the evaluation of the hCB2R-specific binding of the radiotracer in the brain, female Wistar rats (n = 6, 253–269 g, age: 8 month) were used carrying stereotactically injected constructs of AAV2/7-CaMKII0.4-intron-hCB2R(D80N) in the right striatum and AAV2/7-CaMKII0.4-intron-3flag-eGFP in the control/contralateral striatum (Vandeputte et al. [2011]). 21–26 MBq corresponding to 0.2 to 2.0 nmol kg^−1 bodyweight radiotracer were injected, whereas in displacement studies 5 mg kg^−1 bodyweight GW405833 was administered 20 min after the radiotracer (each n = 3). The PET scans were performed six months after the stereotactic injections of the AAV2/7-constructs.
The acquisitions were performed in normal mode and a coincidence mode 1–5. For subsequent dynamic reconstructions list mode data were sorted into sinograms (12 × 10 s, 6 × 30 s, 5 × 60 s and 10 × 300 s). The frames were reconstructed by Ordered Subset Expectation Maximization applied to 3D (OSEM3D) sinograms corrected for decay and attenuation (4 iterations, 6 subsets and a voxel size of 0.4 mm^3) with the Nucline software v2.01 (Mediso, Budapest, Hungary). Analyses of reconstructed studies were performed with PMOD software (v4.205, PMOD Technologies LLC, Fällanden, Switzerland) and results are expressed in standardized uptake values (SUVs) or normalized to a reference region (SUVr).
From the wildtype rats used for in vivo metabolism studies a hematocrit content of 0.56 ± 0.04 (n = 11) was determined by a 5 min centrifugation of 50 µl blood in a hematocrit centrifuge at 500 g. The free plasma fraction (fp) of [^18F]JHU94620-d8 was determined gravimetrically by ultrafiltration of 100 µl rat plasma samples incubated for 5, 15, 30 and 60 min at 37 °C for 20 min at 14,000 g utilizing Nanosep® centrifugal filters (10 kDa, Pall Laboratory, USA). The brain PET images were co-registered to the PMOD integrated Px Rat (W. Schiffer) T2 MR template and the brain stem, cerebellum, left cortex and left midbrain region from the corresponding brain atlas were used for the determination of the regional TACs. Due to high spillover signals from the hCB2R(D80N) expressing region not all provided atlas regions could be evaluated. Subsequently, the total tissue distribution (VT) was estimated by 2-tissue compartment modelling. For correction of the TACs, an averaged image-derived input function (pIDIF, plasma-to-whole blood ratio corrected), determined in biodistribution studies and the parent fraction derived from metabolism studies in Wistar rats (Watabe fit) and pIDIF (3-exponential fit) were integrated into the modelling process. The binding potential was estimated by a simplified reference tissue modelling (SRTM) using the cerebellar region as reference. The parametric maps were generated with the PXMOD module.

[2H]C([2H])([18F])C([2H])([2H])C([2H])([2H])C([2H])([2H])n1c(C)c(C)s/c1=N\C(=O)C1C(C)(C)C1(C)C [[^18F]JHU94620-d8]
half-life ([1]; Sprague Dawley, rat): 10.8 ± 2.4 min
half-life ([1]; human): 2.1 ± 0.7 min
TAC peak value, Cerebellum [2]: 2.8 ± 0.2 SUVmean
TAC peak value, Contralateral [2]: 3.3 ± 0.5 SUVmean
Time-to-peak, Cerebellum [2]: 2.5 min
Time-to-peak, Contralateral [2]: 3.5 min
Time-to-peak, hCB2R(D80N) [2]: 10 min
VT of hCB2R(D80N) region, times higher than other investigated brain regions [2]: up to 23 times
SUVr60min hCB2R(D80N)-to-Cerebellum ([2]; 60 min): 47 ± 4
SUVr60min hCB2R(D80N)-to-Contralateral ([2]; 60 min): 10 ± 4
